Data reported in PMC3004257, “Purine nucleoside phosphorylase from Schistosoma mansoni in complex with ribose-1-phosphate” (Journal of Synchrotron Radiation, 2010).

Tests used:
[1] = target: T1, SmPNP (Schistosoma mansoni purine nucleoside phosphorylase) (Schistosoma mansoni, UniProt Q9BMI9); test: X-ray crystallography, crystal soaking, […] Å; type: binding; details: 5 mM R1P soak up to 48 h, 20% PEG 1500, 15 mM sodium acetate pH 4.9 or 5.0, 20% glycerol; phosphate and ribose sites of all three subunits; acetate in base site
T1 construct: low-molecular-mass homotrimer
T1 sequence (Q9BMI9 1-287): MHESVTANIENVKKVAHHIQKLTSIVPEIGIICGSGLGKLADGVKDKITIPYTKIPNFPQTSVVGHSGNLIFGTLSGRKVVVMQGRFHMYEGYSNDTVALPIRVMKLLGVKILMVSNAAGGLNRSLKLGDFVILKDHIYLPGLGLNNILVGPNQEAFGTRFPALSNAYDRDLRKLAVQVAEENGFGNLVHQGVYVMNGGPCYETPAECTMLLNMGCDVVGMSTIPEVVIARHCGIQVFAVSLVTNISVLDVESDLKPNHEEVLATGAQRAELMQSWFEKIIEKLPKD

[2] = target: T1, SmPNP (Schistosoma mansoni purine nucleoside phosphorylase); test: X-ray crystallography, crystal soaking; details: soaking aimed at ternary complex with R1P; base binding site

Row | Compound | X-ray crystallography, crystal soaking, 2.0 Å [1] | X-ray crystallography, crystal soaking [2]
1 | O=P(O)(O)O[C@H]1O[C@H](CO)[C@@H](O)[C@H]1O [ribose-1-phosphate] | we have been able to obtain the elusive binary complex of SmPNP with R1P | –
2 | O=c1[nH]cnc2nc[nH]c12 [hypoxanthine] | – | by soaking were unsuccessful, SmPNP–hypoxanthine complexes being obtained instead
